{"source": "paper PMC7719179", "about": "“Small molecule inhibition of Dynamin-dependent endocytosis targets multiple niche signals and impairs leukemia stem cells” (Nature Communications, 2020)", "key": {"[1]": {"system": "Lmo2^Tg primary leukemias (T-ALL 249, T-ALL 273, T-ALL 582)", "test": "In vivo efficacy in recipients of Lmo2^Tg primary T-ALL: leukemic DN3a cells, spleen weight, %Cd45.2+ in blood", "parameters": "species or system mouse", "conditions": "for Absolute numbers CD45.2+ DN3a cells: 24 h after last administration", "experimental": "These compounds were diluted in 50% v/v DMSO/20 mM Tris-HCl pH 7.4 immediately prior to use.\nFlow cytometry analyses were performed as previously described[10],[86] on single-cell suspensions stained using BD Pharmingen antibodies (BD Australia, North Ryde NSW, Australia) against mouse CD4 (RM4-5), CD8 (53-6.7), CD25 (PC61.5), CD44 (IM7), CD45.1 (A20), CD45.2 (104), Thy1.2 (53-2.1; #561616), TCRβ (H57-597), CD117 (ACK45), CD135 (A2F10.1), CD150 (TC15-12F12.2; #562373), B220 (RA3-6B2; #563708), CD3 (145-2C11; #563004), CD19 (ID3; #557655), Gr-1 (RB6-8C5; #563299 and #565033), CD11b (M1/70; #563015 and #560455), Ter119 (Ter119; #565523 and #557909), Sca-1 (D7; #558160) and an eBioscience antibody (eBioscience, Invitrogen) against mouse NOTCH1 (22E5). DN3 populations and IL-7R were stained using BioLegend antibodies (Australian Biosearch, Balcatta WA, Australia) against mouse CD28 (E18) and CD127 (A7R34), respectively. Apoptosis was measured using an antibody against AnnexinV (#556420, BD Australia) and the […] Sytox Blue (BD Australia) following the manufacturer’s protocol. […]\nThe period of administration is indicated in light grey.\ng, Leukemia growth delay (LGD) in recipients injected with Lmo2Tg primary leukemias treated with\nMedian is indicated for each condition\n(bar) with Mean ± SEM indicated for each primary T-ALL, 2-way ANOVA with Tukey’s correction"}, "[2]": {"system": "Ba/F3-IL7R^Stat5-CA cells", "test": "Cytotoxic activity in IL-7-dependent and IL-7-independent Ba/F3-IL7R^Stat5-CA cells", "format": "cell-based, murine", "conditions": "for Survival (%) over survival at day 0, reported as 100%: Ba/F3-IL7R^Stat5-CA cells, dose = IC50 or LC50 of each drug; for sensitivity of Ba/F3-IL7R^Stat5-CA cells with constitutive pStat5 (doxycycline): result in words", "description": "The doxycycline-inducible dual-colour TRMPVIR (TRE-dsRed-miR30/shRNA-PGK-Venus-IRES-rtTA3) retroviral vector[84] was kindly given by R. A. Dickins and was modified by replacing the dsRed-miR30/shRNA sequence by a T2A self-cleaving peptide[85] fusioned with the mCherry fluorescent protein (from TRIPZ, Addgene) inserted into the BamHI and EcoRI sites of the plasmid downstream of the TRE promoter to generate the TxTCPVIR (TRE-gene-T2A-mCherry-PGK-Venus-IRES-rtTA3) retroviral vector. Using standard cloning techniques, we inserted the full-length sequence of Stat5-CA from the pMig-R1 construct into the TxTCPVIR vector to generate the TxTCPVIR-Stat5-CA construct. All subcloned constructs were verified by DNA sequencing (Micromon, Monash University, Australia). Detailed cloning strategies, primers sequences and vectors are available on request.\nBa/F3 cells (kindly provided by a person from The Walter and Eliza Hall Institute of Medical Research) were infected with pMIG-R1/Il7r retroviral supernatants produced in 293T cells, and transduced cells were sorted with a BD Influx (BD Australia) and selected by culture in medium supplemented with 5 ng/mL rmIL-7 (#217-17, Pepro Tech, Rocky Hill NJ, USA) for 7 days. Ba/F3 cells stably expressing Il7r (Ba/F3-IL7R) were infected with TxTCPVIR-Stat5-CA retroviral supernatants produced in 293T. Cell sorting was performed with a BD Influx and transduced cells were treated with doxycycline for 48 h to induce the expression of the Stat5-CA-T2A-mCherry fusion protein.\nFlow cytometry analyses were performed as previously described[10],[86] on single-cell suspensions stained using BD Pharmingen antibodies (BD Australia, North Ryde NSW, Australia) against mouse CD4 (RM4-5), CD8 (53-6.7), CD25 (PC61.5), CD44 (IM7), CD45.1 (A20), CD45.2 (104), Thy1.2 (53-2.1; #561616), TCRβ (H57-597), CD117 (ACK45), CD135 (A2F10.1), CD150 (TC15-12F12.2; #562373), B220 (RA3-6B2; #563708), CD3 (145-2C11; #563004), CD19 (ID3; #557655), Gr-1 (RB6-8C5; #563299 and #565033), CD11b (M1/70; #563015 and #560455), Ter119 (Ter119; #565523 and #557909), Sca-1 (D7; #558160) and an eBioscience antibody (eBioscience, Invitrogen) against mouse NOTCH1 (22E5). DN3 populations and IL-7R were stained using BioLegend antibodies (Australian Biosearch, Balcatta WA, Australia) against mouse CD28 (E18) and CD127 (A7R34), respectively. Apoptosis was measured using an antibody against AnnexinV (#556420, BD Australia) and the […] Sytox Blue (BD Australia) following the manufacturer’s protocol."}}, "note": "“And” between values parts separate entries of the source, which are not always exact repeats. Identical values can stand only once."}
{"smiles": "CCCCCCCCNC(=O)C(C#N)=Cc1cn(CCCN(C)C)c2ccccc12", "note": "[Dynole 34-2, 2-Cyano-N-octyl-3-(1-(3-dimethylaminopropyl)-1H-indol-3-yl)-acrylamide]", "values": [{"measurement": "Absolute numbers CD45.2+ DN3a cells", "setting": "[1]; T-ALL 249, Spleen of recipients", "result": "14400000 and 25700000 and 20600000"}, {"measurement": "Proportion of CD45.2+ (%) in peripheral blood", "setting": "[1]; T-ALL 249, time 1 weeks", "result": 1.0, "unit": "%"}, {"measurement": "Proportion of CD45.2+ (%) in peripheral blood", "setting": "[1]; T-ALL 249, time 3 weeks", "result": "85.0% and 93.0% and 82.0% and 75.0%"}, {"measurement": "Proportion of CD45.2+ (%) in peripheral blood", "setting": "[1]; T-ALL 249, time 3.7 weeks", "result": "85.0% and 76.0%"}, {"measurement": "Proportion of CD45.2+ (%) in peripheral blood", "setting": "[1]; T-ALL 249, time 4 weeks", "result": "42.1% and 57.0% and 54.0% and 43.9% and 53.3%"}, {"measurement": "Absolute numbers CD45.2+ DN3a cells", "setting": "[1]; T-ALL 273, BM of recipients", "result": "9200 and 6480 and 12500"}, {"measurement": "Proportion of CD45.2+ (%) in peripheral blood", "setting": "[1]; T-ALL 273, time 1 weeks", "result": 1.0, "unit": "%"}, {"measurement": "Proportion of CD45.2+ (%) in peripheral blood", "setting": "[1]; T-ALL 273, time 5 weeks", "result": 2.0, "unit": "%"}, {"measurement": "Proportion of CD45.2+ (%) in peripheral blood", "setting": "[1]; T-ALL 273, time 6 weeks", "result": 64.0, "unit": "%"}, {"measurement": "Proportion of CD45.2+ (%) in peripheral blood", "setting": "[1]; T-ALL 582, time 1 weeks", "result": "4.9% and 3.3% and 7.9% and 0.1%"}, {"measurement": "Proportion of CD45.2+ (%) in peripheral blood", "setting": "[1]; T-ALL 582, time 2 weeks", "result": 19.6, "unit": "%"}, {"measurement": "Proportion of CD45.2+ (%) in peripheral blood", "setting": "[1]; T-ALL 582, time 4 weeks", "result": "5.1% and 6.0% and 2.7% and 1.8%"}, {"measurement": "Proportion of CD45.2+ (%) in peripheral blood", "setting": "[1]; T-ALL 582, time 4.1 weeks", "result": 57.1, "unit": "%"}, {"measurement": "Proportion of CD45.2+ (%) in peripheral blood", "setting": "[1]; T-ALL 582, time 5 weeks", "result": "40.6% and 45.8% and 42.7% and 38.8%"}, {"measurement": "Proportion of CD45.2+ (%) in peripheral blood", "setting": "[1]; T-ALL 582, time 5.6 weeks", "result": 90.7, "unit": "%"}, {"measurement": "Proportion of CD45.2+ (%) in peripheral blood", "setting": "[1]; T-ALL 582, time 6 weeks", "result": 97.8, "unit": "%"}, {"measurement": "Proportion of CD45.2+ (%) in peripheral blood", "setting": "[1]; T-ALL 582, time 6.3 weeks", "result": 96.2, "unit": "%"}, {"measurement": "Spleen weight", "setting": "[1]; recipients of primary T-ALL 273", "result": "0.186 g and 0.118 g and 0.165 g"}, {"measurement": "Spleen weight", "setting": "[1]; recipients of primary T-ALL 582", "result": "0.123 g and 0.097 g and 0.095 g"}, {"measurement": "Survival (%) over survival at day 0, reported as 100%", "setting": "[2]; +IL-7 -DOX, 0 h", "result": "100.02% and 100.26% and 101.92% and 100.41% and 100.83%"}, {"measurement": "Survival (%) over survival at day 0, reported as 100%", "setting": "[2]; +IL-7 -DOX, 24 h", "result": "43.12% and 51.68% and 50.50% and 59.30% and 47.40% and 40.60%"}, {"measurement": "Survival (%) over survival at day 0, reported as 100%", "setting": "[2]; +IL-7 -DOX, 72 h", "result": "14.22% and 14.73% and 23.20% and 19.38% and 17.76% and 14.96%"}, {"measurement": "Survival (%) over survival at day 0, reported as 100%", "setting": "[2]; +IL-7 -DOX, 96 h", "result": "9.23% and 10.77% and 10.13% and 6.51% and 4.52% and 2.59%"}, {"measurement": "Survival (%) over survival at day 0, reported as 100%", "setting": "[2]; -IL-7 +DOX, 0 h", "result": "100.62% and 100.47% and 99.53% and 102.59% and 101.73% and 102.89%"}, {"measurement": "Survival (%) over survival at day 0, reported as 100%", "setting": "[2]; -IL-7 +DOX, 24 h", "result": "90.53% and 91.07% and 101.15% and 104.21% and 101.37% and 100.26%"}, {"measurement": "Survival (%) over survival at day 0, reported as 100%", "setting": "[2]; -IL-7 +DOX, 48 h", "result": "94.10% and 95.40% and 97.40% and 99.30% and 95.90%"}, {"measurement": "Survival (%) over survival at day 0, reported as 100%", "setting": "[2]; -IL-7 +DOX, 72 h", "result": "93.90% and 97.20% and 90.70% and 94.80% and 93.20% and 97.10%"}, {"measurement": "Survival (%) over survival at day 0, reported as 100%", "setting": "[2]; -IL-7 +DOX, 96 h", "result": "93.40% and 86.60% and 95.50% and 96.20% and 87.10% and 90.40%"}, {"measurement": "Survival (%) over survival at day 0, reported as 100%", "setting": "[2]; -IL-7 +DOX, 120 h", "result": "91.10% and 96.40% and 90.00% and 90.90% and 93.10% and 83.00%"}, {"measurement": "sensitivity of Ba/F3-IL7R^Stat5-CA cells with constitutive pStat5 (doxycycline)", "setting": "[2]", "result": "resistant"}]}
{"smiles": "N#CC[C@H](C1CCCC1)n1cc(-c2ncnc3[nH]ccc23)cn1", "note": "[Ruxolitinib]", "values": [{"measurement": "Survival (%) over survival at day 0, reported as 100%", "setting": "[2]; +IL-7 -DOX, 0 h", "result": "101.66% and 101.91% and 100.26% and 101.92% and 100.41% and 100.83%"}, {"measurement": "Survival (%) over survival at day 0, reported as 100%", "setting": "[2]; +IL-7 -DOX, 24 h", "result": "71.50% and 70.41% and 55.25% and 49.40% and 37.10% and 63.11%"}, {"measurement": "Survival (%) over survival at day 0, reported as 100%", "setting": "[2]; -IL-7 +DOX, 0 h", "result": "100.45% and 99.83% and 99.53% and 102.59% and 101.73% and 102.89%"}, {"measurement": "Survival (%) over survival at day 0, reported as 100%", "setting": "[2]; -IL-7 +DOX, 24 h", "result": "85.97% and 82.57% and 104.88% and 98.10% and 101.20% and 101.43%"}, {"measurement": "Survival (%) over survival at day 0, reported as 100%", "setting": "[2]; -IL-7 +DOX, 48 h", "result": "97.70% and 95.00% and 95.90% and 97.50% and 97.30% and 99.10%"}, {"measurement": "Survival (%) over survival at day 0, reported as 100%", "setting": "[2]; -IL-7 +DOX, 72 h", "result": "94.40% and 93.30% and 85.80% and 83.20% and 99.40% and 84.90%"}, {"measurement": "Survival (%) over survival at day 0, reported as 100%", "setting": "[2]; -IL-7 +DOX, 96 h", "result": "93.30% and 85.80% and 83.20% and 99.40%"}, {"measurement": "Survival (%) over survival at day 0, reported as 100%", "setting": "[2]; -IL-7 +DOX, 120 h", "result": "92.90% and 90.20% and 86.50% and 89.30% and 78.60% and 92.10%"}, {"measurement": "sensitivity of Ba/F3-IL7R^Stat5-CA cells with constitutive pStat5 (doxycycline)", "setting": "[2]", "result": "resistant"}]}
